# Target: Beta-3 Adrenergic Receptor (Homo sapiens (Human), UniProt P13945)
# Assay: HTRF cAMP antagonist assay (IC50 determination)
# Type: cell-based
# Conditions: CHO-K1 cells stably expressing recombinant receptor; antagonism of isoproterenol at EC90; cAMP readout
# Outline: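 Antagonist mode: isoproterenol at its predetermined EC90 added after compound to recombinant CHO-K1 cells in IBMX-containing PBS, 1 h, room temperature. Compounds tested as 5-fold, 10-point dilutions, top final typically 10 or 100 μM. HTRF signal converted to cAMP via standard curve, giving IC50.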
# Beta-3 Adrenergic Receptor, sequence (P13945 whole entry, species assumed): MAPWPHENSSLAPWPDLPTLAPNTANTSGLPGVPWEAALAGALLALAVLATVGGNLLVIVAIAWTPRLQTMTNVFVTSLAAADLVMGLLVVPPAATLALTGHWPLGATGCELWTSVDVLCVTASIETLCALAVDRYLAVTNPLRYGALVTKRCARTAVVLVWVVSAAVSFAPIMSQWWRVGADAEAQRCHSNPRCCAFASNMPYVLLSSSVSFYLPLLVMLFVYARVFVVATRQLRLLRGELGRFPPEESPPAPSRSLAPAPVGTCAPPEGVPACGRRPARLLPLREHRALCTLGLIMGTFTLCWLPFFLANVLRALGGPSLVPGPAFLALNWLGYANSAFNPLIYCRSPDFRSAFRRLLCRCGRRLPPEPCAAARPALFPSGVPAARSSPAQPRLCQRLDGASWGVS
row,IC50 [nM],Structure (SMILES)
1,75,"O=S(=O)(CCO)c1cccc(OC[C@@H](O)CN[C@H]2COC3(CCN(S(=O)(=O)c4ccc5ncccc5c4)CC3)C2)c1 [Compound 93, (S)-1-(3-(2-hydroxyethylsulfonyl)phenoxy)-3-((R)-8-(quinolin-6-ylsulfonyl)-1-oxa-8-azaspiro[4.5]decan-3-ylamino)propan-2-ol]"
2,113,"CS(=O)(=O)Cc1cccc(OC[C@H](O)CNC2COC3(CCN(S(=O)(=O)c4ccc5ccccc5c4)CC3)C2)c1 (stereo partly drawn) [Compound 94, (2R)-1-(3-(methylsulfonylmethyl)phenoxy)-3-(8-(naphthalen-2-ylsulfonyl)-1-oxa-8-azaspiro[4.5]decan-3-ylamino)propan-2-ol]"
3,21.1,"CS(=O)(=O)Cc1cccc(OC[C@@H](O)CN[C@H]2COC3(CCN(S(=O)(=O)c4cnc5ccccc5c4)CC3)C2)c1 [Compound 95, (S)-1-(3-(methylsulfonylmethyl)phenoxy)-3-((R)-8-(quinolin-3-ylsulfonyl)-1-oxa-8-azaspiro[4.5]decan-3-ylamino)propan-2-ol]"
4,411,"O=S(=O)(CCO)c1cccc(OC[C@@H](O)CN[C@H]2COC3(CCN(S(=O)(=O)c4cccc(-c5ccncc5)c4)CC3)C2)c1 [Compound 96, (S)-1-(3-(2-hydroxyethylsulfonyl)phenoxy)-3-((R)-8-(3-(pyridin-4-yl)phenylsulfonyl)-1-oxa-8-azaspiro[4.5]decan-3-ylamino)propan-2-ol]"
5,212,"O=S(=O)(CCO)c1cccc(OC[C@@H](O)CN[C@H]2COC3(CCN(S(=O)(=O)c4cccc(-c5cccnc5)c4)CC3)C2)c1 [Compound 97, (S)-1-(3-(2-hydroxyethylsulfonyl)phenoxy)-3-((R)-8-(3-(pyridin-3-yl)phenylsulfonyl)-1-oxa-8-azaspiro[4.5]decan-3-ylamino)propan-2-ol]"
6,89,"O=S(=O)(CCO)c1cccc(OC[C@@H](O)CN[C@H]2COC3(CCN(S(=O)(=O)c4ccc5cccnc5c4)CC3)C2)c1 [Compound 98, (S)-1-(3-(2-hydroxyethylsulfonyl)phenoxy)-3-((R)-8-(quinolin-7-ylsulfonyl)-1-oxa-8-azaspiro[4.5]decan-3-ylamino)propan-2-ol]"
7,287,"O=S(=O)(CCO)c1cccc(OC[C@@H](O)CN[C@H]2COC3(CCN(S(=O)(=O)c4ccc(-c5cccnc5)cc4)CC3)C2)c1 [Compound 99, (S)-1-(3-(2-hydroxyethylsulfonyl)phenoxy)-3-((R)-8-(4-(pyridin-3-yl)phenylsulfonyl)-1-oxa-8-azaspiro[4.5]decan-3-ylamino)propan-2-ol]"
8,92.2,"O=S(=O)(CCO)c1cccc(OC[C@@H](O)CN[C@H]2COC3(CCN(S(=O)(=O)c4cccc(-c5ccccn5)c4)CC3)C2)c1 [Compound 100, (S)-1-(3-(2-hydroxyethylsulfonyl)phenoxy)-3-((R)-8-(3-(pyridin-2-yl)phenylsulfonyl)-1-oxa-8-azaspiro[4.5]decan-3-ylamino)propan-2-ol]"
9,466,"O=S(=O)(CCO)c1cccc(OC[C@@H](O)CN[C@H]2COC3(CCN(S(=O)(=O)c4ccc(-c5ccncc5)cc4)CC3)C2)c1 [Compound 101, (S)-1-(3-(2-hydroxyethylsulfonyl)phenoxy)-3-((R)-8-(4-(pyridin-4-yl)phenylsulfonyl)-1-oxa-8-azaspiro[4.5]decan-3-ylamino)propan-2-ol]"
10,114,"O=S(=O)(CCO)c1cccc(OC[C@@H](O)CN[C@H]2COC3(CCN(S(=O)(=O)c4ccc(-c5ccccn5)cc4)CC3)C2)c1 [Compound 102, (S)-1-(3-(2-hydroxyethylsulfonyl)phenoxy)-3-((R)-8-(4-(pyridin-2-yl)phenylsulfonyl)-1-oxa-8-azaspiro[4.5]decan-3-ylamino)propan-2-ol]"
11,1200,"NCc1ccc(-c2ccc(S(=O)(=O)N3CCC4(CC3)C[C@@H](NC[C@H](O)COc3cccc(S(=O)(=O)CCO)c3)CO4)cc2)cc1 [Compound 103, (S)-1-((R)-8-(4′-(aminomethyl)biphenyl-4-ylsulfonyl)-1-oxa-8-azaspiro[4.5]decan-3-ylamino)-3-(3-(2-hydroxyethylsulfonyl)phenoxy)propan-2-ol]"
12,36.5,"CN1CCOc2ncc(S(=O)(=O)N3CCC4(CC3)C[C@@H](NC[C@H](O)COc3cccc(CS(C)(=O)=O)c3)CO4)cc21 [Compound 104, (S)-1-((R)-8-(1-methyl-2,3-dihydro-1H-pyrido[2,3-b][1,4]oxazin-7-ylsulfonyl)-1-oxa-8-azaspiro[4.5]decan-3-ylamino)-3-(3-(methylsulfonylmethyl)phenoxy)propan-2-ol]"
13,277,"O=S(=O)(CCO)c1cccc(OC[C@@H](O)CN[C@H]2COC3(CCN(S(=O)(=O)c4cccc5cnccc45)CC3)C2)c1 [Compound 105, (S)-1-(3-(2-hydroxyethylsulfonyl)phenoxy)-3-((R)-8-(isoquinolin-5-ylsulfonyl)-1-oxa-8-azaspiro[4.5]decan-3-ylamino)propan-2-ol]"
14,36.2,"CC(C)(CO)S(=O)(=O)c1cccc(OC[C@@H](O)CN[C@H]2COC3(CCN(S(=O)(=O)c4cnc5ccccc5c4)CC3)C2)c1 [Compound 106, 2-(3-((S)-2-hydroxy-3-((R)-8-(quinolin-3-ylsulfonyl)-1-oxa-8-azaspiro[4.5]decan-3-ylamino)propoxy)phenylsulfonyl)-2-methylpropan-1-ol]"
15,25.7,"O=S(=O)(c1cnc2ccccc2c1)N1CCC2(CC1)C[C@@H](NC[C@H](O)COc1cccc(S(=O)(=O)C3(CO)CCC3)c1)CO2 [Compound 107, (S)-1-(3-(1-(hydroxymethyl)cyclobutylsulfonyl)phenoxy)-3-((R)-8-(quinolin-3-ylsulfonyl)-1-oxa-8-azaspiro[4.5]decan-3-ylamino)propan-2-ol]"
16,325,"CC(C)(C(N)=O)S(=O)(=O)c1cccc(OC[C@@H](O)CN[C@H]2COC3(CCN(S(=O)(=O)c4cnc5ccccc5c4)CC3)C2)c1 [Compound 108, 2-(3-((S)-2-hydroxy-3-((R)-8-(quinolin-3-ylsulfonyl)-1-oxa-8-azaspiro[4.5]decan-3-ylamino)propoxy)phenylsulfonyl)-2-methylpropanamide]"
17,145,"CC(C)(CO)S(=O)(=O)c1cccc(OC[C@@H](O)CN[C@H]2COC3(CCN(S(=O)(=O)c4ccc5ncccc5c4)CC3)C2)c1 [Compound 109, 2-(3-((S)-2-hydroxy-3-((R)-8-(quinolin-6-ylsulfonyl)-1-oxa-8-azaspiro[4.5]decan-3-ylamino)propoxy)phenylsulfonyl)-2-methylpropan-1-ol]"
18,68.7,"O=S(=O)(c1ccc2ncccc2c1)N1CCC2(CC1)C[C@@H](NC[C@H](O)COc1cccc(S(=O)(=O)C3(CO)CCC3)c1)CO2 [Compound 110, (S)-1-(3-(1-(hydroxymethyl)cyclobutylsulfonyl)phenoxy)-3-((R)-8-(quinolin-6-ylsulfonyl)-1-oxa-8-azaspiro[4.5]decan-3-ylamino)propan-2-ol]"
19,31.1,"CS(=O)(=O)c1cccc(OC[C@@H](O)CN[C@H]2COC3(CCN(S(=O)(=O)c4ccc5ncccc5c4)CC3)C2)c1 [Compound 111, (S)-1-(3-(methylsulfonyl)phenoxy)-3-((R)-8-(quinolin-6-ylsulfonyl)-1-oxa-8-azaspiro[4.5]decan-3-ylamino)propan-2-ol]"
20,39.5,"CCS(=O)(=O)c1cccc(OC[C@@H](O)CN[C@H]2COC3(CCN(S(=O)(=O)c4ccc5ncccc5c4)CC3)C2)c1 [Compound 112, (S)-1-(3-(ethylsulfonyl)phenoxy)-3-((R)-8-(quinolin-6-ylsulfonyl)-1-oxa-8-azaspiro[4.5]decan-3-ylamino)propan-2-ol]"

# Source: patent publication US10927123B2, “Modulators of the beta-3 adrenergic receptor useful for the treatment or prevention of disorders related thereto” (Arena Pharmaceuticals, Inc., priority 2016, dated 2021)
